As usually defined, the IC50 is the concentration that gives 50% inhibition. A higher IC50 goes with weaker potency.

We go through 14 molecules from ChEMBL document CHEMBL1149853, “Cannabinoid ester constituents from high-potency Cannabis sativa” (J Nat Prod, 2008).

In brackets after ≈: the same amount, converted by molar mass. Activity calls are given as the source filed them. The calls are words filed in the database; no cut-off is given here.

The target in experiment [1] is Cannabinoid receptor 1 (Homo sapiens) (UniProt P21554). As to the kind of experiment: Binding affinity to CB1 receptor.
Another experiment has as its system Candida albicans. As to the kind of experiment: Antimicrobial activity against Candida albicans ATCC 90028. The experiment is classed as functional, organism-based.
In experiment [2] the test system is Plasmodium falciparum. As to the kind of experiment: Antimicrobial activity against Plasmodium falciparum D6. The experiment is classed as functional, organism-based.
In experiment [3] the test system is Plasmodium falciparum. As to the kind of experiment: Antimicrobial activity against Plasmodium falciparum W2. In kind it is functional, organism-based.

Sequence of Cannabinoid receptor 1 (Homo sapiens) (P21554 whole entry): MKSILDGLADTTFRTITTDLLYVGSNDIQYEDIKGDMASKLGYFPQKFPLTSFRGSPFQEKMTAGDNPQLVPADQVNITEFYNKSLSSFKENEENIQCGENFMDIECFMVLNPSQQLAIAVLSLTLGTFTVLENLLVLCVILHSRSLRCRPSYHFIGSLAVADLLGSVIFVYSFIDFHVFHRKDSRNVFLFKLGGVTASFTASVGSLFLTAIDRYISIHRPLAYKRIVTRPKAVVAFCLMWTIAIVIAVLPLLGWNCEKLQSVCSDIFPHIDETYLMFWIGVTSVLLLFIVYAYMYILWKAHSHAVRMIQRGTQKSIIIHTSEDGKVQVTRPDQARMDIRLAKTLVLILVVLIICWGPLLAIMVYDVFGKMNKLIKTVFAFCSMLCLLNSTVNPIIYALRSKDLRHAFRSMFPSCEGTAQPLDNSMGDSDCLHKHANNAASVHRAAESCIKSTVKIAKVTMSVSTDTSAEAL

Take `CCCCCc1cc2c(c(O)c1C(=O)O[C@H]1C[C@H]3CC[C@@]1(C)C3(C)C)[C@@H]1C=C(C)CC[C@H]1C(C)(C)O2`: the result in experiment [1] was inactive. As for `CCCCCc1cc(O)c(C/C=C(\C)CCC=C(C)C)c(O)c1C(=O)O[C@@]1(C)CC[C@@H](C(C)C)[C@@H]2C=C(C)CC[C@H]21`, the result in experiment [1] was inactive.

For `CCCCCc1cc2c(c(O)c1C(=O)OC1(C(C)C)CC=C(C)CC1)-c1cc(C)ccc1C(C)(C)O2` (configuration not stated), the results for the IC50 with Candida albicans, in the experiment on Plasmodium falciparum [2] and in the experiment on Plasmodium falciparum [3] were 8.5 µg/mL (≈ 17.3 µM), 2.7 µg/mL (≈ 5.5 µM) and 2.4 µg/mL (≈ 4.89 µM), respectively. The result in experiment [1] was inactive. Regarding `CCCCCc1cc2c(c(O)c1C(=O)O[C@@]1(C)CC[C@@H](C(C)C)[C@@H]3C=C(C)CC[C@H]31)[C@@H]1C=C(C)CC[C@H]1C(C)(C)O2`, the outcome in experiment [1] was inactive. On the same count and under the same terms, next, `CCCCCc1cc2c(c(O)c1C(=O)OC(C)(C)C1CC=C(C)CC1)[C@@H]1C=C(C)CC[C@H]1C(C)(C)O2` (some centres not stated): “inactive”. On the same count and under the same terms, as for `CCCCCc1cc2c(c(O)c1C(=O)O[C@H]1C(C)(C)[C@@H]3CC[C@@]1(C)C3)[C@@H]1C=C(C)CC[C@H]1C(C)(C)O2`, the entry is “inactive”.

With `CCCCCc1cc(O)c(C/C=C(\C)CCC=C(C)C)c(O)c1C(=O)OC(C)(C)[C@@H]1CC[C@@]2(C)CCCC(C)=C2C1`, the result in experiment [1] was inactive. On the same count and under the same terms, next, `CCCCCc1cc2c(c(O)c1C(=O)OC1(C(C)C)CC=C(C)CC1)[C@@H]1C=C(C)CC[C@H]1C(C)(C)O2` (some centres not stated): “inactive”. Turning to `CCCCCc1cc2c(c(O)c1C(=O)OC(C)(C)[C@@H]1CC[C@@]3(C)CCCC(C)=C3C1)[C@@H]1C=C(C)CC[C@H]1C(C)(C)O2`, the outcome in experiment [1] was inactive. The same measure, in the same setting: as for `CCCCCc1cc2c(c(O)c1C(=O)O)[C@@H]1C=C(C)CC[C@H]1C(C)(C)O2`, the entry is “inactive”. Same read-out and setting: as for `CCCCCc1cc2c(c(O)c1C(=O)O)-c1cc(C)ccc1C(C)(C)O2`, the entry is “inactive”; as for `CCCCCc1cc2c(c(O)c1C(=O)O[C@H]1C[C@H]3CC[C@]1(C)C3(C)C)[C@@H]1C=C(C)CC[C@H]1C(C)(C)O2`, “inactive”. Same read-out and setting: next, `CCCCCc1cc(O)c(C/C=C(\C)CCC=C(C)C)c(O)c1C(=O)O`: “inactive”. Regarding `CCCCCc1cc2c(c(O)c1C(=O)O[C@@H]1C(C)(C)[C@@H]3CC[C@@]1(C)C3)[C@@H]1C=C(C)CC[C@H]1C(C)(C)O2`, in experiment [1], the outcome was inactive.
